This is an account of results in the supplement of paper PMC10307832.

Common to all, as to assay: relative viability (nuclei count vs DMSO), 5 days (fraction); higher = more cells survive
Compound in assay [1]: CC(C)N(CCCNC(=O)Nc1ccc(C(C)(C)C)cc1)C[C@H]1O[C@@H](n2ccc3c(N)ncnc32)[C@H](O)[C@@H]1O + O=C(c1cc(Cc2n[nH]c(=O)c3ccccc23)ccc1F)N1CCN(C(=O)C2CC2)CC1 [Olaparib] (partner 8 µM)
The essentials: (§1)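 For relative viability, nuclei counts in treated wells were divided by those in vehicle wells. Lung cancer cell lines had been pin-tool dosed in 1536-well plates the day after seeding and cultured for 5 days, then fixed and stained in one step (final 0.05% Triton X-100, 1% formaldehyde, 1 ug/ml Hoechst) and imaged at 4×. Doses were one drug alone or a fixed anchor-drug dose plus five library-drug doses (not always all listed) in √10 steps, and values are duplicate-plate medians.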

Compound in assay [2]: CC(C)N(CCCNC(=O)Nc1ccc(C(C)(C)C)cc1)C[C@H]1O[C@@H](n2ccc3c(N)ncnc32)[C@H](O)[C@@H]1O + Cc1nc(Nc2ncc(C(=O)Nc3c(C)cccc3Cl)s2)cc(N2CCN(CCO)CC2)n1 [Dasatinib] (partner 0.075 µM)
The essentials: as §1

Compound in assay [3]: CC(C)=CC[C@@H](O)C1=CC(=O)c2c(O)ccc(O)c2C1=O [Shikonin] + Cc1cc(Nc2cc(N3CCN(C)CC3)nc(Sc3ccc(NC(=O)C4CC4)cc3)n2)n[nH]1 [Tozasertib] (partner 0.1 µM)
An outline of the steps:
as §1

Compound in assay [4]: CC(C)N(CCCNC(=O)Nc1ccc(C(C)(C)C)cc1)C[C@H]1O[C@@H](n2ccc3c(N)ncnc32)[C@H](O)[C@@H]1O + CC(=O)c1c(C)c2cnc(Nc3ccc(N4CCNCC4)cn3)nc2n(C2CCCC2)c1=O [Palbociclib] (partner 0.5 µM)
An outline of the steps: as §1

As to UMC-11, the relative viability in assay [1] (first compound 0.08 µM) is 0.407; in assay [1] (first compound 0.253 µM), 0.447; in assay [1] (first compound 0.8 µM), 0.378; in assay [1] (first compound 2.53 µM), 0.327; in assay [1] (first compound 8 µM), 0.323; in assay [2] (first compound 0.08 µM), 0.461. Moreover, the relative viability in assay [2] (first compound 0.253 µM) was 0.422; in assay [2] (first compound 0.8 µM), 0.436; in assay [2] (first compound 2.53 µM), 0.486; in assay [2] (first compound 8 µM), 0.492; in assay [3] (first compound 0.01 µM), 0.185; in assay [3] (first compound 0.1 µM), 0.213. In addition, the relative viability in assay [3] (first compound 0.3162 µM) was 0.203; in assay [3] (first compound 1 µM) it was 0.169; in assay [4] (first compound 0.08 µM) it was 0.294; in assay [4] (first compound 0.253 µM) it was 0.316; in assay [4] (first compound 0.8 µM) it was 0.304; in assay [4] (first compound 2.53 µM), 0.323. Moreover, in assay [4] (first compound 8 µM), the relative viability came out at 0.28.
